Key:
Format in all cases: cell-based
E. coli DH5α = experiment: Antibacterial activity: MIC and growth curve against E. coli DH5α in 96-well plate; conditions: minimal inhibitory concentration against E. coli DH5α; 96-well plate, 5×10^5 CFU/mL, 37° C., judged after 8 h
Method in brief: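 Log-phase DH5α (OD600 about 0.5, 37° C, 185 rpm in LB) was pelleted, resuspended in fresh LB and seeded at 5×10^5 CFU/mL with recombinant protein at 50, 25 and 12.5 μg/mL (two-fold series), in triplicate. Plates were shaken at 175 rpm, 37° C, and OD600 was read every 30 min. MIC was the lowest concentration with no growth.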

E. coli BL21 = experiment: MIC against Gram-negative bacteria: E. coli BL21
Method in brief: (§1)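 Inocula prepared by growing LB cultures at 37° C to 0.5 McFarland, centrifuging at 4000×g, and resuspending in fresh medium. Final density 5×10^5 CFU/mL per well with two-fold dilutions of purified EGF domain protein; shaking incubation at 37° C.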

Pseudomonas aeruginosa = experiment: MIC against Gram-negative bacteria: Pseudomonas aeruginosa
Method in brief: as §1

Klebsiella pneumonia = experiment: MIC against Gram-negative bacteria: Klebsiella pneumonia
Method in brief: as §1

Enterobacter cloacae = experiment: MIC against Gram-negative bacteria: Enterobacter cloacae
Method in brief: as §1

Aeromonas hydrophila = experiment: MIC against Gram-negative bacteria: Aeromonas hydrophila
Method in brief: as §1

Citrobacter diversus = experiment: MIC against Gram-negative bacteria: Citrobacter diversus
Method in brief: as §1

Moraxella catarrhalis = experiment: MIC against Gram-negative bacteria: Moraxella catarrhalis
Method in brief: as §1

Proteus mirabilis = experiment: MIC against Gram-negative bacteria: Proteus mirabilis
Method in brief: as §1

Proteus vulgaris = experiment: MIC against Gram-negative bacteria: Proteus vulgaris
Method in brief: as §1

Serratia marcescens = experiment: MIC against Gram-negative bacteria: Serratia marcescens
Method in brief: as §1

[1] = 10 h cultivation at 37° C., 5×10^5 CFU/mL, two-fold serial dilution
[2] = E. coli BL21, 96-well plate, 5×10^5 CFU/mL, 37° C., 10 h
[3] = Pseudomonas aeruginosa, 96-well plate, 5×10^5 CFU/mL, 37° C., 10 h
[4] = Klebsiella pneumonia, 96-well plate, 5×10^5 CFU/mL, 37° C., 10 h
[5] = Enterobacter cloacae, 96-well plate, 5×10^5 CFU/mL, 37° C., 10 h
[6] = Aeromonas hydrophila, 96-well plate, 5×10^5 CFU/mL, 37° C., 10 h
[7] = Citrobacter diversus, 96-well plate, 5×10^5 CFU/mL, 37° C., 10 h
[8] = Moraxella catarrhalis, 96-well plate, 5×10^5 CFU/mL, 37° C., 10 h
[9] = Proteus mirabilis, 96-well plate, 5×10^5 CFU/mL, 37° C., 10 h
[10] = Proteus vulgaris, 96-well plate, 5×10^5 CFU/mL, 37° C., 10 h
[11] = Serratia marcescens, 96-well plate, 5×10^5 CFU/mL, 37° C., 10 h
[12] = 96-well plate, 5×10^5 CFU/mL, 37° C., 10 h

For “PRT1058 (DIDECQLGEHSCGENASCTNTEGGYTCMCAGRLSEPGLICP; listed as Homo sapiens)”, which MIC (E. coli DH5α) is on record?
Its MIC is 12.5 µg/mL.

And the “MIC E. coli BL21” value (E. coli BL21; [1])?
The value was 25 µg/mL.

And the “MIC P. aeruginosa” value (Pseudomonas aeruginosa; [1])?
The value was 50 µg/mL.

What about the “MIC K. pneumonia” value (Klebsiella pneumonia; [1]) of the same substance?
The value was 25 µg/mL.

And the “MIC E. cloacae” value (Enterobacter cloacae; [1])?
The value was 12.5 µg/mL.

And the “MIC A. hydrophila” value (Aeromonas hydrophila; [1])?
The value was 50 µg/mL.

And the “MIC C. diversus” value (Citrobacter diversus; [1])?
Its value is 12.5 µg/mL.

And the “MIC M. catarrhalis” value (Moraxella catarrhalis; [1])?
The value was 50 µg/mL.

And the “MIC P. mirabilis” value (Proteus mirabilis; [1])?
Its value is 12.5 µg/mL.

And the “MIC P. vulgaris” value (Proteus vulgaris; [1])?
The value was 50 µg/mL.

And the “MIC S. marcescens” value (Serratia marcescens; [1])?
Its value is 12.5 µg/mL.

For “PRT64 (PCSSSPCRGGATCALGPHGKNYTCRCPQGYQLDSSQLDCV; listed as Homo sapiens)”, which MIC (E. coli DH5α) is on record?
The MIC was 12.5 µg/mL.

What about the “MIC (μg/mL) E. coli BL21” value (E. coli BL21; [2]) of the same substance?
Its value is 12.5 µg/mL.

And the “MIC (μg/mL) P. aeruginosa” value (Pseudomonas aeruginosa; [3])?
The value was 50 µg/mL.

And the “MIC (μg/mL) K. pneumonia” value (Klebsiella pneumonia; [4])?
The value was 25 µg/mL.

And the “MIC (μg/mL) E. cloacae” value (Enterobacter cloacae; [5])?
Its value is 12.5 µg/mL.

What about the “MIC (μg/mL) A. hydrophila” value (Aeromonas hydrophila; [6]) of the same substance?
The value was 25 µg/mL.

And the “MIC (μg/mL) C. diversus” value (Citrobacter diversus; [7])?
The value was 50 µg/mL.

What about the “MIC (μg/mL) M. catarrhalis” value (Moraxella catarrhalis; [8]) of the same substance?
The value was 25 µg/mL.

And the “MIC (μg/mL) P. mirabilis” value (Proteus mirabilis; [9])?
The value was 25 µg/mL.

And the “MIC (μg/mL) P. vulgaris” value (Proteus vulgaris; [10])?
Its value is 25 µg/mL.

What about the “MIC (μg/mL) S. marcescens” value (Serratia marcescens; [11]) of the same substance?
The value was 25 µg/mL.

“PRT638 (DVNECELLSGVCGEAFCENVEGSFLCVCADENQEYSPMTGQCR; listed as Homo sapiens)” was tested. Which MIC (E. coli DH5α) did it give?
The MIC was 25 µg/mL.

And the “MIC E. coli BL21” value (E. coli BL21; [12])?
Its value is 12.5 µg/mL.

What about the “MIC P. aeruginosa” value (Pseudomonas aeruginosa; [12]) of the same substance?
Its value is 50 µg/mL.

What about the “MIC K. pneumonia” value (Klebsiella pneumonia; [12]) of the same substance?
The value was 12.5 µg/mL.

What about the “MIC E. cloacae” value (Enterobacter cloacae; [12]) of the same substance?
The value was 25 µg/mL.

What about the “MIC A. hydrophila” value (Aeromonas hydrophila; [12]) of the same substance?
Its value is 50 µg/mL.

And the “MIC C. diversus” value (Citrobacter diversus; [12])?
The value was 25 µg/mL.

What about the “MIC M. catarrhalis” value (Moraxella catarrhalis; [12]) of the same substance?
The value was 12.5 µg/mL.

What about the “MIC P. mirabilis” value (Proteus mirabilis; [12]) of the same substance?
Its value is 50 µg/mL.

What about the “MIC P. vulgaris” value (Proteus vulgaris; [12]) of the same substance?
The value was 12.5 µg/mL.

What about the “MIC S. marcescens” value (Serratia marcescens; [12]) of the same substance?
The value was 50 µg/mL.

“PRT494 (CNCSLVGSTHHRCDVVTGHCQCKSKFGGRACDQCSLGYRDFPDCVP; listed as Homo sapiens)” was tested. Which MIC (E. coli DH5α) did it give?
Its MIC is 50 µg/mL.

What about the “MIC against E. coli BL21” value (E. coli BL21; [12]) of the same substance?
The value was 25 µg/mL.

And the “MIC against P. aeruginosa” value (Pseudomonas aeruginosa; [12])?
The value was 12.5 µg/mL.

And the “MIC against K. pneumonia” value (Klebsiella pneumonia; [12])?
The value was 25 µg/mL.

What about the “MIC against E. cloacae” value (Enterobacter cloacae; [12]) of the same substance?
Its value is 50 µg/mL.

And the “MIC against A. hydrophila” value (Aeromonas hydrophila; [12])?
Its value is 25 µg/mL.

And the “MIC against C. diversus” value (Citrobacter diversus; [12])?
Its value is 12.5 µg/mL.

And the “MIC against M. catarrhalis” value (Moraxella catarrhalis; [12])?
Its value is 25 µg/mL.

What about the “MIC against P. mirabilis” value (Proteus mirabilis; [12]) of the same substance?
The value was 50 µg/mL.

What about the “MIC against P. vulgaris” value (Proteus vulgaris; [12]) of the same substance?
The value was 25 µg/mL.

And the “MIC against S. marcescens” value (Serratia marcescens; [12])?
Its value is 12.5 µg/mL.

Which MIC (E. coli DH5α) does the source give for “PRT1214 (GRENCTFAPCLEGGTCILSPKGASCNCPHPYTGDRCE; listed as Homo sapiens)” here?
Its MIC is 25 µg/mL.

And the “MIC against E. coli BL21” value (E. coli BL21; [2])?
Its value is 12.5 µg/mL.

And the “MIC against P. aeruginosa” value (Pseudomonas aeruginosa; [3])?
The value was 50 µg/mL.

What about the “MIC against K. pneumonia” value (Klebsiella pneumonia; [4]) of the same substance?
Its value is 25 µg/mL.

What about the “MIC against E. cloacae” value (Enterobacter cloacae; [5]) of the same substance?
Its value is 12.5 µg/mL.

And the “MIC against A. hydrophila” value (Aeromonas hydrophila; [6])?
The value was 50 µg/mL.

And the “MIC against C. diversus” value (Citrobacter diversus; [7])?
Its value is 12.5 µg/mL.

And the “MIC against M. catarrhalis” value (Moraxella catarrhalis; [8])?
The value was 25 µg/mL.

And the “MIC against P. mirabilis” value (Proteus mirabilis; [9])?
Its value is 50 µg/mL.

What about the “MIC against P. vulgaris” value (Proteus vulgaris; [10]) of the same substance?
The value was 12.5 µg/mL.

What about the “MIC against S. marcescens” value (Serratia marcescens; [11]) of the same substance?
The value was 25 µg/mL.

How did the MIC (E. coli DH5α) turn out when “PRT539 (CDCSGNSDPNLIFEDCDEVTGQCRNCLRNTTGFKCERCAPGYYGDARIAKNCAV; listed as Homo sapiens)” was run?
The MIC was 12.5 µg/mL.

What about the “MIC against E. coli BL21” value (E. coli BL21; [12]) of the same substance?
Its value is 50 µg/mL.

What about the “MIC against P. aeruginosa” value (Pseudomonas aeruginosa; [12]) of the same substance?
Its value is 12.5 µg/mL.

And the “MIC against K. pneumonia” value (Klebsiella pneumonia; [12])?
The value was 25 µg/mL.

What about the “MIC against E. cloacae” value (Enterobacter cloacae; [12]) of the same substance?
The value was 50 µg/mL.

What about the “MIC against A. hydrophila” value (Aeromonas hydrophila; [12]) of the same substance?
Its value is 25 µg/mL.

And the “MIC against C. diversus” value (Citrobacter diversus; [12])?
The value was 12.5 µg/mL.

What about the “MIC against M. catarrhalis” value (Moraxella catarrhalis; [12]) of the same substance?
Its value is 25 µg/mL.

What about the “MIC against P. mirabilis” value (Proteus mirabilis; [12]) of the same substance?
Its value is 50 µg/mL.

And the “MIC against P. vulgaris” value (Proteus vulgaris; [12])?
The value was 12.5 µg/mL.

What about the “MIC against S. marcescens” value (Serratia marcescens; [12]) of the same substance?
The value was 50 µg/mL.

How did the MIC (E. coli DH5α) turn out when “PRT963 (QVDECRSQPCRHGGKCLDLVDKYLCRCPSGTTGVNCE; listed as Homo sapiens)” was run?
Its MIC is 25 µg/mL.

What about the MIC (E. coli BL21; E. coli BL21, 10 h cultivation at 37° C.) of the same substance?
The MIC was 50 µg/mL.

What about the MIC (Pseudomonas aeruginosa; P. aeruginosa, 10 h cultivation at 37° C.) of the same substance?
Its MIC is 25 µg/mL.

What about the MIC (Klebsiella pneumonia; K. pneumonia, 10 h cultivation at 37° C.) of the same substance?
Its MIC is 12.5 µg/mL.

What about the MIC (Enterobacter cloacae; E. cloacae, 10 h cultivation at 37° C.) of the same substance?
The MIC was 25 µg/mL.

And the MIC (Aeromonas hydrophila; A. hydrophila, 10 h cultivation at 37° C.)?
Its MIC is 50 µg/mL.

And the MIC (Citrobacter diversus; C. diversus, 10 h cultivation at 37° C.)?
Its MIC is 25 µg/mL.

And the MIC (Moraxella catarrhalis; M. catarrhalis, 10 h cultivation at 37° C.)?
The MIC was 12.5 µg/mL.

And the MIC (Proteus mirabilis; P. mirabilis, 10 h cultivation at 37° C.)?
The MIC was 50 µg/mL.

And the MIC (Proteus vulgaris; P. vulgaris, 10 h cultivation at 37° C.)?
Its MIC is 25 µg/mL.

And the MIC (Serratia marcescens; S. marcescens, 10 h cultivation at 37° C.)?
Its MIC is 25 µg/mL.

How did the MIC (E. coli DH5α) turn out when “PRT449 (FLCRCHQGYELHRDGFSCSDIDE; listed as Homo sapiens)” was run?
Its MIC is 50 µg/mL.

What about the “MIC against E. coli BL21” value (E. coli BL21; [12]) of the same substance?
Its value is 12.5 µg/mL.

What about the “MIC against P. aeruginosa” value (Pseudomonas aeruginosa; [12]) of the same substance?
The value was 50 µg/mL.

What about the “MIC against K. pneumonia” value (Klebsiella pneumonia; [12]) of the same substance?
Its value is 12.5 µg/mL.

And the “MIC against E. cloacae” value (Enterobacter cloacae; [12])?
The value was 50 µg/mL.

And the “MIC against A. hydrophila” value (Aeromonas hydrophila; [12])?
The value was 25 µg/mL.

What about the “MIC against C. diversus” value (Citrobacter diversus; [12]) of the same substance?
Its value is 12.5 µg/mL.

And the “MIC against M. catarrhalis” value (Moraxella catarrhalis; [12])?
The value was 25 µg/mL.

And the “MIC against P. mirabilis” value (Proteus mirabilis; [12])?
Its value is 50 µg/mL.

What about the “MIC against P. vulgaris” value (Proteus vulgaris; [12]) of the same substance?
Its value is 12.5 µg/mL.

What about the “MIC against S. marcescens” value (Serratia marcescens; [12]) of the same substance?
Its value is 50 µg/mL.
